The values below come from article PMC11519904, “Comprehensive Cell Biological Investigation of Cytochalasin B Derivatives with Distinct Activities on the Actin Network” (Journal of Natural Products, 2024).

Structures are written as SMILES. Several values for one entry are separate records, joined by “and”; a condition that tells them apart may be missing. Equal values may be shown once. Read-outs that look alike come from different tables or passages of the source. Where only a bound is given, the exact number is not on record here.

Data set [1] deals with T1, actin (G-actin purified from rabbit skeletal muscle) (Oryctolagus cuniculus, UniProt P68135).
T1 construct: 1.5 kg of fresh rabbit skeletal muscle was minced with a meat grinder; from tissue; host or cells: rabbit skeletal muscle (acetone powder)
Kind of data set: Pyrene actin polymerization assay. As to conditions: 2 μM compound, 2 μM actin (5% pyrene-actin), 550 nM actin seeds, after 30 min; control = 100%. The class given is biochemical. From the text:
To rule out that the reduced in cellulo efficacies of 3–5 could instead be explained by an altered membrane permeability of modified compounds or their differential effects on other intracellular factors, pyrene actin polymerization assays[23] were used to analyze potential effects on actin assembly in vitro under defined conditions. Globular actin (G-actin) was purified from rabbit skeletal muscle[24] and fluorescently labeled with pyrene (see description in the Supporting Information). G-actin (2 μM) supplemented with 5% pyrene-labeled actin was added to actin seeds and the respective compound (2 μM) in polymerization buffer to initiate the reaction. Actin polymerization was then assessed by reading out the increasing pyrene fluorescence signal over time (Figure 3).
Acetone powder and G-actin were prepared as described previously.[24] Briefly, 1.5 kg of fresh rabbit skeletal muscle was minced with a meat grinder. Subsequently, the meat was stirred for 15 min in 2.5 L of high-salt buffer (0.5 M KCl, 0.1 M K2HPO4, 2 mM benzamidine, pH 6.4) and then pelleted at 4000g for 10 min. The supernatant was discarded, and the pellet was extracted once more with high-salt buffer and then washed twice with ice-cold ddH2O adjusting the slurry with 1 M Na2CO3 to pH 8.3 until a slight swelling of the pellet became visible. The pellet was then resuspended in ice-cold acetone, stirred for 15 min, and then centrifuged for 10 min at 4000g. The supernatant was discarded, and the pellet was washed once more with acetone before the pellet was broken up and dried in small pieces on aluminum foil under a fume hood overnight. The dried acetone powder was stored at −80 °C for further use.
For purification of G-actin, 5 g of the acetone powder was extracted five times with 50 mL of G-buffer containing 2 mM Tris-HCl, pH 8.0, 0.2 mM CaCl2, 0.5 mM DTT, 0.2 mM Na2ATP, and 0.1 mg/mL NaN3. After each step, the solution was filtered through a fine gauze, yielding a total volume of 250 mL. Subsequently, the solution was centrifuged for 30 min at 20,000g at 4 °C. Actin in the supernatant was then polymerized by addition of 25 × polymerization buffer (250 mM Tris-HCl pH 8.0, 1250 mM KCl, 25 mM Na2ATP, 50 mM MgCl2 × 6 H2O) overnight. Subsequently, KCl was added to a final concentration of 750 mM, followed by centrifugation of the solution at 150,000g at 4 °C for 3 h. The F-actin pellet was then homogenized with 25 mL of G-actin buffer using a potter and then dialyzed against G-buffer. After a final centrifugation step at 150,000g at 4 °C for 3 h, G-actin was purified by size exclusion chromatography using a HiLoad 26/75 Superdex 200 column. Actin concentrations were determined by measuring the absorbance at 290 nm and using an extinction coefficient of 26,600 M^–1 cm^–1.
For pyrene labeling, 10–20 mL of G-actin solution were dialyzed against labeling buffer following the procedure described by Doolittle et al.[38] […]
Pyrene assays were conducted to assess the inhibitory properties of cytochalasins on actin polymerization under defined conditions in vitro using G-actin and actin seeds. The degree of labeling was determined; EC290 nm actin: 26600 1/M × cm; EC342 nm pyrene: 31091 1/M × cm. […]

Data set [2] in a line: Microextraction of compounds from medium after cell exposure (conversion to 2). The class given is in vitro ADME, human. The conditions noted are these: for conversion to 2 after 1 h: 1 h cell exposure (data not shown). The procedure:
[…] Therefore, cells were seeded and treated with 5 × IC50 concentrations, as already described. […] After evaporation of EtOAc, the dried extracts were diluted in methanol (50 μL) and measured with a high-pressure liquid chromatography system coupled to a diode-array UV/vis detector conjugated with an electrospray ionization mass spectrometer, using an UltiMate 3000 Series uHPLC (Thermo Fisher Scientific) utilizing a C18 Acquity UPLC BEH column (2.1 × 50 mm, 1.7 μm; Waters, Milford, USA) connected to an amaZon speed ESI-Iontrap-MS (Bruker, Billerica, MA, USA). Spectra were analyzed using Bruker Compass DataAnalysis 4.4 SR1.

For another data set, the system named is L929 (mouse fibroblast). Kind of data set: Cytotoxicity assay (MTT), L929. Format: cell-based. The conditions noted are these: 5 days of incubation, MTT, NC: no cytotoxic effect, or only weak inhibition of proliferation, read-out: IC50 L929. How it is done:
The cytotoxicity assay was implemented in 96-well flat-bottom microtiter plates following a reported procedure.[21],[22],[33] The mammalian cell lines L929 (mouse fibroblast) and KB3.1 (human cervix carcinoma) were cultivated at 37 °C and 10% CO2 in Dulbecco’s modified minimum essential medium (DMEM, Life Technologies, Carlsbad, CA, USA) supplemented with 10% fetal bovine serum (FBS, Life Technologies). The microtiter plate was filled with 120 μL of suspended cells (50,000/mL), and 60 μL of a serial dilution of the test compound was added. After 5 days of incubation, growth inhibition (IC50) was determined by a colorimetric tetrazolium dye MTT assay.[34] The compounds were dissolved in MeOH (1 mg/mL), MeOH was used as negative control, and epothilone[35] (1 mg/mL) was used as positive control.

`C=C1[C@@H](C)[C@H]2[C@H](Cc3ccccc3)NC(=O)[C@]23OC(=O)/C=C/[C@H](O)CCC[C@@H](C)C/C=C/[C@H]3[C@@H]1OC(C)=O` [Compound 3, 7-O-acetyl cytochalasin B]: the “relative actin polymerization rate” value in data set [1] is on record as 107%. In addition, the “conversion to 2 / decomposition after 24 h cell exposure” value in data set [2] (medium re-extracted after 24 h, 5 x IC50, HPLC-UV-MS) is reported as “no decomposition”. Further, the concentration for half-maximal inhibition (IC50) is 16 µM with L929 (mouse fibroblast) and greater than 10 µM in the data set with L929 (mouse fibroblast) (Mus musculus, L929, 120 h).

With `C=C1[C@@H](C)[C@H]2[C@H](Cc3ccccc3)N(C(C)=O)C(=O)[C@]23OC(=O)/C=C/[C@H](O)CCC[C@@H](C)C/C=C/[C@H]3[C@@H]1O` [Compound 5, N-acetyl cytochalasin B], the “relative actin polymerization rate” value in data set [1] was 86% and 84–86%. In addition, the “conversion to 2 after 1 h” value in data set [2] is reported as “little conversion”. Also, the half-maximal inhibitory concentration (IC50) with L929 (mouse fibroblast) is 9.4 µM; with L929 (mouse fibroblast) (Mus musculus, L929, 120 h) it was 4.8 to 9.4 µM.

Consider `C=C1[C@@H](C)[C@H]2[C@H](Cc3ccccc3)NC(=O)[C@]23OC(=O)/C=C/[C@H](OC(C)=O)CCC[C@@H](C)C/C=C/[C@H]3[C@@H]1O` [Compound 6, 20-O-acetyl cytochalasin B], for which the “relative actin polymerization rate” value in data set [1] is given as 58%. Further, the “conversion to 2 after 1 h” value in data set [2] was “not detected”. The half-inhibitory concentration (IC50) in the data set with L929 (mouse fibroblast) is 4.8 µM; in the data set on L929 (mouse fibroblast) (Mus musculus, L929, 120 h), 4.8 to 9.4 µM.
